Experimental findings from US11274132B2, “Combined preparations of PKM2 modulators and HMGB1” (Ruprecht-Karls-Universität Heidelberg, priority 2015, dated 2022) are described below.

One data set concerns colorectal cancer cells. As to the kind of experiment: Crystal violet cytotoxicity assay, cell lines not given. As to conditions: HMGB1 80 nM, 72 h. The format is cell-based. The protocol: Human colon carcinoma cell lines SW480, HCT116, HT29 and Caco2, the human glioblastoma cell line U251MG and the Natural killer cell line NK-92 Cl were purchased from ATCC. Cell lines were regularly tested for contamination by multiplex PCR performed in the Genomics and Proteomics Core Facility 2 (DKFZ, Heidelberg, Germany). For experiments, cells were cultured for no more than 10 passages. Rho zero cells were generated as described earlier 1. (Gdynia, G. et al. Danger signaling protein HMGB1 induces a distinct form of cell death accompanied by formation of giant mitochondria. Cancer research 70, 8558-8568). Cells used in the experiments were cultured in RPMI (#1640, colon carcinomas, NK cells) or DMEM high glucose (#41965-039, glioblastoma cells) medium. Rho zero cells were generated as described earlier (Gdynia, G. et al. ibd.). Briefly, cells were cultured in RPMI medium (10% FCS, 1% P/S) supplemented with 250 ng/ml ethidiumbromide, 50 μg/ml L-pyruvate and 5 mg/ml uridine over a period of 12 weeks. For cytotoxicity measurements, cells were cultured in 96-well plates, treated with recombinant human HMGB1 protein (Sigma-Aldrich®), glycyrrhizinic acid ((3β, 18α)-30-hydroxy-11, 30-dioxoolean-12-en-3-yl 2-O-β-D-glucopyranuronosyl-β-D-glucopyranosiduronic acid)) (Sigma-Aldrich®), 10 μM (non-toxic) or 100 μM (cytotoxic) P-M2tide (aa sequence: GGAVDDDpYAQFANGG; #BML-P239-0001; Enzo Life Sciences) or 100 μM ML-265 (Cayman Chemical), then cell viability was assessed by crystal violet staining (Gillies, R. J., Didier, N. & Denton, M. Determination of cell number in monolayer cultures. Analytical biochemistry 159, 109-113 (1986)). Malic enzyme 1 knock-down was performed with 40 nM siRNA using lipofectamine in 6-well plates followed by treatment with 80 nM HMGB1 for 72 h. Sequences of siRNA were: ME1, 5′-[…]-3′ and scrambled control 5′-CCUGCAGUACUUCAAGCGGtt-3′. PKM2 siRNA was from Santa Cruz. A nonspecific siRNA served as control (Dharmacon, Schwerte, Germany). For overexpression of PKM2 or ME1, cells were transfected with pCMV-PKM2 (Sino Biological Inc., Beijing, China) or pCMV-ME1 (OriGene, Rockville, Md., USA) using Lipofectamine 2000. For cytotoxicity measurements confluent cells were cultured in 96-well plates if not otherwise indicated. Cytotoxic activity of supernatants from stimulated NK cells was assessed in 96-well plates for 3 days with RPMI medium as reference. Recombinant human HMGB1 (10 ng, Sigma) suited as positive control. For mass isotopomer assays, cells were cultured in glucose- or glutamine-free medium supplemented with either uniformly labeled (U)-13C-D-glucose or U-13C-glutamine (Sigma-Aldrich®).

A further data set relates to ATP synthase. As to the kind of experiment: Respiratory chain complex activities in mitochondrial fractions. The format is cell-based, human. As to conditions: colorectal cancer cell lines; HMGB1 80 nM, 24 h. The protocol:
Enzymatic activities of respiratory chain complexes, glycolytic proteins and malic enzyme were determined in subcellular fractions as previously described (Kaminski, M. M. et al. T cell activation is driven by an ADP-dependent glucokinase linking enhanced glycolysis with mitochondrial reactive oxygen species generation. Cell reports 2, 1300-1315 (2012).Bruncko, M. et al. Naphthamidine urokinase plasminogen activator inhibitors with improved pharmacokinetic properties. Bioorganic & medicinal chemistry letters 15, 93-98, (2005)) using a computer-tuneable spectrophotometer (Spectramax Plus Microplate Reader, Molecular Devices; Sunny Vale, Calif., USA) operating in the dual wavelength mode; samples were analyzed in temperature-controlled 96-well plates in a final volume of 300 μl. Activity of ME1 was recorded in presence of increasing amounts of malic acid (0.02, 0.05, 0.1, 0.2, 0.5, 1, 2.5 mM). Vmax and Km were calculated using a Hanes-Woolf plot. In the presence of high substrate levels the Km for malic acid was similar in all three tested cell lines (SW480: 0.32 mM, HCT116: 0.30 mM, HT29: 0.31 mM). Vmax (mU/mg protein) values were 3.38 (SW480, 0.5-5.0 mM malic acid), 5.77 (HCT116, 0.5-5.0 mM malic acid) and 3.68 (HT29, 0.5-5.0 mM malic acid) and 1.68 (SW480, 0.02-0.2 mM malic acid), 3.24 (HCT116, 0.02-0.2 mM malic acid) and 1.89 (HT29, 0.02-0.2 mM malic acid). Two isoforms of ME1, mitochondrial (NAD(P)+dependent) ME3 and mitochondrial (NAD+dependent) ME2, had very low or no detectable activities (data not shown).
Cells were lysed in lysis buffer P (20 mM Tris-HCl (pH 7.4), 137 mM NaCl, 10% (v/v) glycerine, 1% Triton X-100, 2 mM EDTA, 100 mM phenylmethylsulfonyl fluoride and protease inhibitors (Complete mini from Roche). Lysates were centrifuged at 14,000×g (10 min) at 4° C. Total protein was measured by the Bradford (Bio-Rad) method. Soluble protein was resolved by SDS-PAGE, blotted onto nitrocellulose and incubated with one of the following antibodies: mouse monoclonal anti-β-actin (1:3,000, Sigma-Aldrich), rabbit anti PK M2 (1:1,000, Cell Signaling), rabbit anti-malic enzyme 1 (1:1,000, abcam). Appropriate secondary antibodies (1:3,000, horse-radish peroxidase-conjugated) were from Bio-Rad. Visualization was done by enhanced chemiluminescence technique (GE-Healthcare). Mitochondrial fractions were extracted using the ApoAlert Cell Fractionation Kit (Clontech) as described earlier (Gdynia, G. et al. BLOC1S2 interacts with the HIPPI protein and sensitizes NCH89 glioblastoma cells to apoptosis. Apoptosis: an international journal on programmed cell death 13, 437-447, (2008)).

In another data set the test system is ATP. As to the kind of experiment: Cellular ATP after HMGB1 treatment. The format is cell-based, human.
The subject of the next data set is pentose phosphate shunt. As to the kind of experiment: Incorporation of 14C into RNA ribose from U-14C-labelled glucose. To be noted: HMGB1 80 nM, 24 h. The format is cell-based, human. The procedure: Lactate derived from the metabolism of ^13C6-D-glucose or ^13C5-glutamine was determined by comparing the CH3 group intensities of labeled and non-labeled lactate in NMR. Mitochondrial respiration was measured using an Oroboros 1 oxygraph system. Glycolysis was measured by monitoring the conversion of 5-^3H-Glucose to ^3H2O. Incorporation of ^14C into RNA ribose from U-^14C-labelled glucose was taken as glucose utilization in the pentose phosphate shunt. Enzymatic activities were determined in subcellular fractions as previously described^24.

The subject of a further data set is glucose-6-phosphate. As to the kind of experiment: Glucose-6-phosphate assay kit. The format is cell-based, human. To be noted: HMGB1-treated cells. The procedure:
Glucose-6-phosphate levels in cells were measured using the Glucose-6-phosphate assay kit (Sigma) according to the manufacturer's protocol.

A further data set has as its system HT29 cells. As to the kind of experiment: Production of labeled CO2 (glucose and glutamine oxidation). The format is cell-based, human. To be noted: HT29 cells after HMGB1 treatment.

Regarding “HMGB1: recombinant human HMGB1 protein (Sigma-Aldrich); High Mobility Group Box 1 polypeptide, human, SEQ ID NO: 4”, in the data set with colorectal cancer cells, the “sensitivity of cells to HMGB1 after PKM2 down-regulation (siRNA)” value is on record as “sensitized” and the “sensitivity of cells to HMGB1 after PKM2 overexpression” value is given as “more resistant”. In addition, the ATP synthase activity entry in the data set on ATP synthase is given as “not diminished”. In addition, the ATP result with ATP (HCT116 cells) was “substantial decrease”. In addition, the ATP entry in the data set on ATP (SW480 cells) is on record as “substantial decrease”. Also, in the data set on pentose phosphate shunt, the “flux of glycolytic intermediates into the pentose phosphate shunt” value is “increased flux”. In addition, the glucose-6-phosphate level result with glucose-6-phosphate is reported as “strong increase”. Besides, in the data set with HT29 cells, the “decrease of glucose oxidation” value is on record as roughly 50% and the “increase of glutamine oxidation” value is on record as roughly 35%.
